Measured values taken from patent US20060264460A1 (Wyeth, priority 2005, published 2006).

The compounds below were run against T1, human Cot/Tpl2 kinase (Homo sapiens, UniProt P41279) (assay: Tpl2/Cot kinase assay: GST-MEK1 phosphorylation detected by ELISA (DELFIA Eu)). Details: 0.4 nM Tpl2, 35 nM GST-MEK1, 50 uM ATP, 1 h at 30° C.
T1 construct: human Cot/Tpl2 kinase construct encoding residues 30-398; 6His (N); made in house; host or cells: Sf9 insect cells, baculovirus system (BD Biosciences)
T1 sequence (P41279 30-398): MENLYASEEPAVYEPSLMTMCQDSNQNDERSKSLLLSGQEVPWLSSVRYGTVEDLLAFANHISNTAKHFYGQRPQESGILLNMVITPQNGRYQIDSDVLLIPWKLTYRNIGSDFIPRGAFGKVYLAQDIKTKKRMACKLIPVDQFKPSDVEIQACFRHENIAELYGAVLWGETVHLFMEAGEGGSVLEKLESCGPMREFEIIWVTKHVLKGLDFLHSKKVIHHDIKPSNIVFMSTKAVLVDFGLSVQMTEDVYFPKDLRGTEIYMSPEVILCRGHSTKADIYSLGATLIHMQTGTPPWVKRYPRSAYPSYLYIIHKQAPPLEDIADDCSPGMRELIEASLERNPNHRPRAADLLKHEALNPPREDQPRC
Assay type: biochemical
Outline: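 His-tagged human Tpl2 from Sf9 cells, Ni-affinity and size-exclusion purified (monomer). 0.4 nM Tpl2 with 35 nM GST-MEK1, 50 uM ATP, MOPS pH 7.2, 1% DMSO, 1 h at 30° C; EDTA stop. MEK1 Ser217/221 phosphorylation detected by anti-phospho-MEK1 and Eu-labelled secondary ELISA; IC50 fitted.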
In the case of CN(C)Cc1cc(NCc2cccnc2)cc2c(Nc3cccc(Br)c3)c(C#N)cnc12 [Example 124, 4-(3-bromophenylamino)-8-((dimethylamino)methyl)-6-(pyridin-3-ylmethylamino)quinoline-3-carbonitrile], the IC50 is reported as > 10 µM. In the case of Cc1nn(C)c(N2CCOCC2)c1CNc1ccc2ncc(C#N)c(Nc3ccc(F)c(Cl)c3)c2c1 [Example 38, 4-(3-Chloro-4-fluoro-phenylamino)-6-[(1,3-dimethyl-5-morpholin-4-yl-1H-pyrazol-4-ylmethyl)-amino]-quinoline-3-carbonitrile], the IC50 is reported as 2.6 µM. In the case of CCc1nc[nH]c1CNc1cc(Br)c2ncc(C#N)c(Nc3ccc(F)c(Cl)c3)c2c1 [Example 112, 8-bromo-4-(3-chloro-4-fluorophenylamino)-6-((4-ethyl-1H-imidazol-5-yl)methylamino)quinoline-3-carbonitrile], the IC50 is reported as 0.0035 µM. With N#Cc1cnc2c(Br)cc(NCc3cn(CCN4C(=O)c5ccccc5C4=O)nn3)cc2c1Nc1ccc(F)c(Cl)c1 [Example 303, 8-Bromo-4-(3-chloro-4-fluoro-phenylamino)-6-({1-[2-(1,3-dioxo-1,3-dihydro-isoindol-2-yl)-ethyl]-1H-[1,2,3]triazol-4-ylmethyl}-amino)-quinoline-3-carbonitrile] the IC50 was > 40 µM. CN(C)C(=O)c1cc(NCCN2CCOCC2)cc2c(Nc3cccc(Cl)c3)c(C#N)cnc12 [Example 68, 4-(3-chlorophenylamino)-3-cyano-N,N-dimethyl-6-(2-morpholinoethylamino)quinoline-8-carboxamide] was tested, and the IC50 was 11 µM. N#Cc1cnc2c(Cl)cc(NCCc3cnc[nH]3)cc2c1Nc1ccc(F)c(Cl)c1 [Example 283, 8-chloro-4-[(3-chloro-4-fluorophenyl)amino]-6-{[2-(1H-imidazol-5-yl)ethyl]amino}quinoline-3-carbonitrile] gave an IC50 of 0.13 µM. N#Cc1cnc2ccc(NCc3ccccc3)cc2c1Nc1ccc(F)c(Cl)c1 [Example 36, 6-Benzylamino-4-(3-chloro-4-fluoro-phenylamino)-quinoline-3-carbonitrile] showed an IC50 of 0.63 µM. N#Cc1cnc2ccc(NCc3cccc[n+]3[O-])cc2c1NC1CCCCCC1 [Example 253, 4-(cycloheptylamino)-6-{[(1-oxidopyridin-2-yl)methyl]amino}quinoline-3-carbonitrile] was tested, and the IC50 was 1.4 µM. N#Cc1cnc2ccc(NCc3ccc(S(N)(=O)=O)cc3)cc2c1NC1CCCCCC1 [Example 250, 4-({[3-cyano-4-(cycloheptylamino)quinolin-6-yl]amino}methyl)benzenesulfonamide] showed an IC50 of 6.8 µM. Work on CC(Nc1ccc2ncc(C#N)c(Nc3ccc(F)c(Cl)c3)c2c1)c1cnccn1 (centres unmarked) [Example 260, 4-[(3-chloro-4-fluorophenyl)amino]-6-[(1-pyrazin-2-ylethyl)amino]quinoline-3-carbonitrile] yielded an IC50 of 0.83 µM. CC(C)(C)OC(=O)COc1ccc(CNc2ccc3ncc(C#N)c(Nc4ccc(F)c(Cl)c4)c3c2)cc1Br [Example 26, (2-Bromo-4-{[4-(3-chloro-4-fluoro-phenylamino)-3-cyano-quinolin-6-ylamino]-methyl}-phenoxy)-acetic acid tert-butyl ester] was tested, and the IC50 was > 40 µM. N#Cc1cnc2c(NC(=O)c3ccccc3)cc(NCc3cccnc3)cc2c1Nc1cccc(Cl)c1 [Example 73, N-(4-(3-chlorophenylamino)-3-cyano-6-(pyridin-3-ylmethylamino)quinolin-8-yl)benzamide] was tested, and the IC50 was > 40 µM. For COc1ncccc1CNc1ccc2ncc(C#N)c(Nc3ccc(F)c(Cl)c3)c2c1 [Example 51, 4-(3-Chloro-4-fluoro-phenylamino)-6-[(2-methoxy-pyridin-3-ylmethyl)-amino]-quinoline-3-carbonitrile], the IC50 was 0.11 µM. N#Cc1cnc2c(Cl)cc(NCc3cc4n(n3)CCO4)cc2c1Nc1ccc(F)c(Cl)c1 [Example 188, 8-chloro-4-(3-chloro-4-fluorophenylamino)-6-((2,3-dihydropyrazolo[5,1-b]oxazol-6-yl)methylamino)quinoline-3-carbonitrile] was tested, and the IC50 was 0.059 µM. CC(C)(C)OC(=O)N1CCC(CNc2ccc3ncc(C#N)c(Nc4ccc(F)c(Cl)c4)c3c2)C1 (centres unmarked) [Example 52, 3-{[4-(3-Chloro-4-fluoro-phenylamino)-3-cyano-quinolin-6-ylamino]-methyl}-pyrrolidine-1-carboxylic acid tert-butyl ester] showed an IC50 of 1.5 µM.

Same assay, conditions: Table 2; Tpl2/Cot kinase, GST-MEK1 substrate, 50 uM ATP
In the case of Cc1c(CNc2ccc3ncc(C#N)c(Nc4ccc(F)c(Cl)c4)c3c2)ncn1CCN1CCOCC1 [Example 373], the IC50 is reported as 0.014 µM. CN(CCn1cc(CNc2cc(Br)c3ncc(C#N)c(Nc4ccc(F)c(Cl)c4)c3c2)nn1)C(=O)OC(C)(C)C [Example 500] showed an IC50 of 0.067 µM. Work on N#Cc1cnc2ccc(NCc3cccnc3)cc2c1NC1CCCC1 [Example 418] yielded an IC50 of 2.6 µM. Cn1cc(Cl)c(CNc2ccc3ncc(C#N)c(Nc4ccc(F)c(Cl)c4)c3c2)n1 [Example 389] was tested, and the IC50 was > 40 µM. CC(O)Cn1cc(CNc2cc(Br)c3ncc(C#N)c(Nc4ccc(F)c(Cl)c4)c3c2)nn1 (centres unmarked) [Example 487] was tested, and the IC50 was 0.011 µM. In the case of COC(=O)c1cccc(CNc2ccc3ncc(C#N)c(Nc4ccc(F)c(Cl)c4)c3c2)c1 [Example 397], the IC50 is reported as 0.32 µM. Compound CC(C)(C)OC(=O)N1CCC(CCn2cc(CNc3cc(Cl)c4ncc(C#N)c(Nc5ccc(F)c(Cl)c5)c4c3)nn2)CC1 [Example 504] has an IC50 of 0.075 µM. N#Cc1cnc2c(Br)cc(NCc3cn(CCCN4CCCNCC4)nn3)cc2c1Nc1ccc(F)c(Cl)c1 [Example 594] was tested, and the IC50 was 0.043 µM. Cn1cncc1CNc1cc(Cl)c2ncc(C#N)c(Nc3ccc(F)c(Cl)c3)c2c1 [Example 439] gave an IC50 of 0.22 µM. COc1cc(NCc2cccnc2)cc2c(Nc3ccc(F)c(Cl)c3)c(C#N)cnc12 [Example 380] gave an IC50 of 1.1 µM. N#Cc1cnc2c(Br)cc(NCc3cn(Cc4ccccn4)cn3)cc2c1Nc1ccc(F)c(Cl)c1 [Example 620] gave an IC50 of 0.034 µM. In the case of CNC(=O)CNc1cc(Cl)c2ncc(C#N)c(Nc3ccc(F)c(Cl)c3)c2c1 [Example 473], the IC50 is reported as 0.47 µM. Work on N#Cc1cnc2c(Cl)cc(NCc3cn(CCc4ccccn4)nn3)cc2c1Nc1ccc(F)c(Cl)c1 [Example 563] yielded an IC50 of 0.025 µM. Work on Cn1cnc(CNc2cc(Br)c3ncc(C#N)c(Nc4ccc(F)c(Cl)c4)c3c2)n1 [Example 486] yielded an IC50 of 0.2 µM. Compound CN1CCCN(CCCn2cc(CNc3cc(Cl)c4ncc(C#N)c(Nc5ccc(F)c(Cl)c5)c4c3)nn2)CC1 [Example 625] has an IC50 of 0.048 µM. Work on N#Cc1cnc2ccc(NCc3ccc(OCCN4CCOCC4)nc3)cc2c1Nc1ccc(F)c(F)c1 [Example 344] yielded an IC50 of 1.48 µM. With CC(C)N1CCC(Nc2ccc3ncc(C#N)c(Nc4ccc(F)c(Cl)c4)c3c2)CC1 [Example 366] the IC50 was 25.5 µM.

Same assay, conditions: Tpl2/Cot kinase, GST-MEK1 substrate, 50 uM ATP
Compound CC1CC(C)CN(CCCn2cc(CNc3cc(Cl)c4ncc(C#N)c(Nc5ccc(F)c(Cl)c5)c4c3)nn2)C1 (centres unmarked) [Example 800] has an IC50 of 0.15 µM. N#Cc1cnc2c(Br)cc(NCc3cn(Cc4cccnc4)cn3)cc2c1Nc1ccc(F)c(Cl)c1 [Example 706] showed an IC50 of 0.0031 µM. N#Cc1cnc2c(Cl)cc(NCc3cn(Cc4cccc(C(F)(F)F)n4)nn3)cc2c1Nc1ccc(F)c(Cl)c1 [Example 882] gave an IC50 of 0.27 µM. Compound CC(=O)N1CCC(n2cc(CNc3cc(Br)c4ncc(C#N)c(Nc5ccc(F)c(Cl)c5)c4c3)nn2)CC1 [Example 720] has an IC50 of 0.0061 µM. Work on N#Cc1cnc2c(Br)cc(NCc3cn(CC4CCCN4)nn3)cc2c1Nc1ccc(F)c(Cl)c1 (centres unmarked) [Example 722] yielded an IC50 of 0.0092 µM. CC(C)(C)OC(=O)N1CCCN(CCCn2cc(CNc3cc(Br)c4ncc(C#N)c(Nc5ccc(F)c(Cl)c5)c4c3)nn2)CC1 [Example 762] was tested, and the IC50 was 0.52 µM. For CCN(CC1CCN(C(=O)c2cccnc2)CC1)c1cc(Cl)c2ncc(C#N)c(Nc3ccc(F)c(Cl)c3)c2c1 [Example 848], the IC50 was 0.38 µM. With CC1(C)OC[C@H](CNc2cc(Cl)c3ncc(C#N)c(Nc4ccc(F)c(Cl)c4)c3c2)O1 [Example 812] the IC50 was 0.2 µM. In the case of CN1CCCC1CCn1cc(CN(Cc2cn(CCC3CCCN3C)nn2)c2cc(Br)c3ncc(C#N)c(Nc4ccc(F)c(Cl)c4)c3c2)nn1 (centres unmarked) [Example 823], the IC50 is reported as 0.86 µM. CC(C)N1CCC(Nc2ccc3ncc(C#N)c(Nc4ccc(F)c(Cl)c4)c3c2)CC1 [Example 658] gave an IC50 of 25.5 µM. CN1CCC(Cn2cc(CN(C)c3cc(Br)c4ncc(C#N)c(Nc5ccc(F)c(Cl)c5)c4c3)nn2)CC1 [Example 679] gave an IC50 of 0.29 µM. With CN(CCn1cc(CNc2cc(Cl)c3ncc(C#N)c(Nc4ccc(F)c(Cl)c4)c3c2)nn1)C(=O)OC(C)(C)C [Example 676] the IC50 was 0.048 µM.

Same assay, conditions: Tpl2/Cot kinase, GST-MEK1 substrate, 50 uM ATP, 1 h at 30° C.; Table 2
Compound CC(C)(C)OC(=O)N1CCC(n2cc(CNc3cc(Cl)c4ncc(C#N)c(Nc5ccc(F)c(Cl)c5)c4c3)nn2)CC1 [Example 925] has an IC50 of 0.073 µM. COC(=O)N1CCC(n2cc(CN(C(=O)OC)c3cc(Cl)c4ncc(C#N)c(Nc5ccc(F)c(Cl)c5)c4c3)nn2)CC1 [Example 981] gave an IC50 of 0.61 µM. CS(=O)(=O)N1C2CCC1CC(n1cc(CNc3cc(Cl)c4ncc(C#N)c(Nc5ccc(F)c(Cl)c5)c4c3)nn1)C2 (centres unmarked) [Example 1050] gave an IC50 of 0.046 µM. For N#Cc1cnc2c(Cl)cc(NCC3CCCN(C(=O)CNCc4ccccn4)C3)cc2c1Nc1ccc(F)c(Cl)c1 (centres unmarked) [Example 922], the IC50 was 1.69 µM. In the case of CC(C)N1CCC[C@H]1CCn1cc(CNc2cc(Br)c3ncc(C#N)c(Nc4ccc(F)c(Cl)c4)c3c2)nn1 [Example 942], the IC50 is reported as 0.019 µM. With CC1(O)CCC(n2cc(CNc3cc(Cl)c4ncc(C#N)c(Nc5ccc(F)c(Cl)c5)c4c3)nn2)CC1 (centres unmarked) [Example 1060] the IC50 was 0.045 µM. With CN1CCCC1CCn1cc(CNc2cc(Cl)c3ncc(C#N)c(NC4CCC5(CCCCC5)CC4)c3c2)nn1 (centres unmarked) [Example 971] the IC50 was > 3 µM. Compound N#Cc1cnc2c(Cl)cc(NCc3cn(CCN4CCCCCC4)nn3)cc2c1NC1CCCCCC1 [Example 949] has an IC50 of 0.46 µM. N#Cc1cnc2c(Cl)cc(NCc3cn(C4CCN(C5CC5)CC4)nn3)cc2c1Nc1ccc(F)c(Cl)c1 [Example 1003] showed an IC50 of 0.017 µM.
